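Five compound concentrations were applied to cells in 96-well plates for 48 hours; endpoints were derived by simple linear interpolation of the resulting dose-response curve. The concentration for full growth arrest is given as TGI.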 Where a SMILES comes first, the peptide text is derived from it. The star is where a group is joined. Pentanoyl = CCCCC(=O)*; Boc = CC(C)(C)OC(=O)*
Key:
Experiment in all cases: NCI anticancer screen, dose series, 48 h
RPMI-8226 leukemia = test system: RPMI-8226 leukemia
SK-MEL-28 melanoma = test system: SK-MEL-28 melanoma
SN12C renal = test system: SN12C renal
PC-3 prostate = test system: PC-3 prostate
NCI-H226 lung = test system: NCI-H226 lung
MALME-3M melanoma = test system: MALME-3M melanoma
UACC-257 melanoma = test system: UACC-257 melanoma
M14 melanoma = test system: M14 melanoma
A549 NSCLC = test system: A549 NSCLC
SF-295 CNS = test system: SF-295 CNS
786-0 renal = test system: 786-0 renal
LOX IMVI melanoma = test system: LOX IMVI melanoma
CAKI-1 renal = test system: CAKI-1 renal
SNB-19 CNS = test system: SNB-19 CNS
TK-10 renal = test system: TK-10 renal
SK-OV-3 ovarian = test system: SK-OV-3 ovarian
SNB-75 CNS = test system: SNB-75 CNS
HCC-2998 colon = test system: HCC-2998 colon
NCI-H522 lung = test system: NCI-H522 lung
UO-31 renal = test system: UO-31 renal

Structure (SMILES)	TGI (RPMI-8226 leukemia) [µM]	TGI (SK-MEL-28 melanoma) [µM]	TGI (SN12C renal) [µM]	TGI (PC-3 prostate) [µM]	TGI (NCI-H226 lung) [µM]	TGI (MALME-3M melanoma) [µM]	TGI (UACC-257 melanoma) [µM]	TGI (M14 melanoma) [µM]	TGI (A549 NSCLC) [µM]	TGI (SF-295 CNS) [µM]	TGI (786-0 renal) [µM]	TGI (LOX IMVI melanoma) [µM]	TGI (CAKI-1 renal) [µM]	TGI (SNB-19 CNS) [µM]	TGI (TK-10 renal) [µM]	TGI (SK-OV-3 ovarian) [µM]	TGI (SNB-75 CNS) [µM]	TGI (HCC-2998 colon) [µM]	TGI (NCI-H522 lung) [µM]	TGI (UO-31 renal) [µM]
CCCCC(=O)Oc1ccc(CC(NC(=O)OC(C)(C)C)C(=O)NC(C)C(=O)NC(Cc2ccccc2)C(=O)NCC(N)=O)cc1 (stereo not given) (Boc-Y(Pentanoyl)AFG-NH2; configuration not given here)	44.8	64.1	> 100	> 100	> 100	> 100	71.4	> 100	> 100	> 100	> 100	30.7	> 100	59	> 100	> 100	> 100	38.8	39.5	> 100
O=C(O)c1ccccc1CC1Cc2ccc3c(c2C1=O)CCC3 (stereo not given)	> 100	> 100	> 100	> 100	> 100	> 100	> 100	> 100	> 100	> 100	> 100	> 100	> 100	> 100	> 100	> 100	> 100	> 100	> 100	> 100
CCOC(=O)C(C)(C(=O)OCC)/C(Cl)=C\Cl	> 100	> 100	> 100	> 100	> 100	> 100	> 100	> 100	> 100	> 100	> 100	> 100	> 100	> 100	> 100	> 100	> 100	0.988	> 100	> 100
Cn1cc(-c2cnc(-c3cn(C)c4ccccc34)cn2)c2ccccc21	> 44.4	> 79.2	> 100	> 100	> 86.1	> 100	> 100	27.7	> 100	11.7	29.9	35.9	> 100	> 100	> 100	> 100	25.7	41.7	15.4	> 65
COc1ccc(/C=C2\N=C3Sc4c(nc[nH]c4=O)N3C2=O)cc1	> 100	> 100	> 100	> 100	> 100	> 100	> 100	> 100	> 100	> 100	> 100	> 100	> 100	> 100	> 100	> 100	> 100	> 100	> 100	> 100
O=C(NNc1ccnc2cc(Cl)ccc12)/C(=C\c1ccccc1Cl)NC(=O)c1ccccc1	> 100	> 100	> 100	> 100	67.6	> 100	> 100	> 100	> 100	96.1	> 100	32	> 100	> 100	> 100	> 100	> 100	> 100	39.9	> 100
N/C(=N\N=C\c1c[nH]c2cc(C(F)(F)F)ccc2c1=O)NO	> 10	> 10	> 10	> 10	> 10	> 10	> 10	> 10	> 10	> 10	> 10	> 10	> 10	> 10	> 10	> 10	9.03	> 10	> 10	> 10
CN(C)c1nc2n(CCO)c(-c3ccccc3)c(-c3ccccc3)nc-2c(=O)n1	> 100	> 100	> 100	> 100	> 100	> 100	> 100	> 100	> 100	> 100	> 100	> 100	> 100	> 100	> 100	> 100	> 100	> 100	> 100	> 100
O=c1ssc(Cl)c1Nc1c(Cl)ssc1=O	29.9	> 61.8	37.9	37.9	79	37.7	33.4	39.8	49.8	> 100	38.2	31.2	32	69.1	33.3	59	46.5	41.3	60.5	32.4
CCOC(=O)[C@H](O)[C@@H](O)C(=O)NCc1ccc(C(=O)c2ccccc2)cc1	> 100	> 100	> 100	> 100	> 100	> 100	> 100	> 100	> 100	> 100	> 100	> 100	> 100	> 100	> 100	> 100	> 100	> 100	> 100	> 100
CCOC(=O)C1=C(C)OC(=O)[C@@]2(OC)C=C(Cl)[C@@]12C	> 100	> 100	> 100	> 100	> 100	> 100	> 100	> 100	> 100	> 100	> 100	> 100	> 100	> 100	> 100	> 100	> 100	> 100	> 100	> 100
N#Cc1nc(COCc2ccccc2)oc1N	> 100	> 100	> 100	> 100	> 100	> 100	> 100	> 100	> 100	> 100	> 100	> 100	> 100	> 100	> 100	> 100	> 100	> 100	> 100	> 100
COC(=O)C1C(OC(=O)C(Cl)(c2ccccc2)c2ccccc2)CC2CCC1N2C (stereo not given)	> 100	> 100	> 100	> 100	> 100	> 100	> 100	> 100	> 100	> 100	> 100	> 100	> 100	> 100	> 100	> 100	> 100	> 100	> 100	> 100
N=c1nc2n(cc1F)[C@@H]1O[C@H](CO)[C@@H](O)[C@@H]1O2	> 100	> 100	> 100	> 100	> 100	> 34	> 100	7.81	> 100	> 100	> 38.9	> 100	> 100	> 100	> 100	> 100	> 95	> 100	> 74.7	> 42.6
O=C(c1ccc2ccccc2c1)N(Cc1cccnc1)C(=S)N(Cc1cccnc1)C(=O)c1ccc2ccccc2c1	> 100	> 100	> 100	> 100	> 100	> 100	48.7	55	> 100	> 100	73.4	37	44	> 100	78.9	> 100	53.5	32	> 100	97.8
O=C1C(C(c2ccccc2)N2CCOCC2)=C(O)C(c2ccccc2)N1c1ccccc1 (stereo not given)	> 10	> 10	> 10	> 10	> 10	> 10	> 10	> 10	> 10	> 10	> 10	> 10	> 10	> 10	> 10	> 10	> 10	> 10	> 10	> 10
O=C(O)c1ccc([N+]2=Cn3c(nc4ccccc43)C2)cc1	> 100	> 100	> 100	> 100	> 100	3.05	> 100	> 100	> 100	> 100	> 100	> 100	> 100	> 100	> 100	> 100	> 100	> 100	> 100	> 100
COC(=O)[C@]12CSC[C@H]1C[C@H](c1ccccc1OC)N2	> 100	> 100	> 100	> 100	> 100	> 100	> 100	> 100	> 100	> 100	> 100	> 100	> 100	> 100	> 100	> 100	> 100	> 100	> 100	> 100
O=C(CC(C(=O)c1ccco1)c1cccs1)c1cccs1 (stereo not given)	> 100	> 100	> 100	> 100	> 100	> 100	> 100	> 100	> 100	> 100	> 100	> 100	> 100	> 100	> 100	> 100	> 100	> 100	> 100	> 100
CSCCC(N)P(C)(=O)O (stereo not given)	> 100	> 100	> 100	> 100	> 100	> 100	> 100	> 100	> 100	> 100	> 100	> 100	> 100	> 100	> 100	> 100	> 100	> 100	> 100	> 100
CCCCCC(=O)Nc1nc[nH]c1C(N)=O	> 100	> 100	> 100	> 100	> 100	> 100	> 100	> 100	> 100	> 100	> 100	> 100	> 100	> 100	> 100	> 100	> 100	> 100	> 100	> 100
CCOC(=O)C(NCc1ccc2c(c1)OCO2)(NC(=O)c1ccccc1)C(F)(F)F (stereo not given)	> 100	> 100	> 100	> 100	> 100	> 100	> 100	> 100	> 100	> 100	> 100	> 100	> 100	> 100	> 100	> 100	> 100	> 100	> 100	> 100

From PubChem BioAssay (NCI)
